Test results as given in PubChem BioAssay AID248 (DTP/NCI, 2004).
Values joined by “and” are separate entries in the source; they are usually repeats but may differ in a detail not shown here. Equal values may be shown once. Toxic doses and inconclusive results are not listed.

System: L1210 leukemia ip in BDF1 mice, survival T/C
Assay: NCI In Vivo Anticancer Drug Screen. Data for tumor model L1210 Leukemia (intraperitoneal) in B6D2F1 (BDF1) mice
Conditions: endpoint: mean survival time, higher = longer survival
In short: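 Read-out is survival time, reported as the treated-group measurement over the vehicle-control measurement.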

[1] = dose: 100.0 mg/kg/injection, schedule: Q04DX003 (ip), vehicle: saline
[2] = dose: 200.0 mg/kg/injection, schedule: Q01DX009 (ip), vehicle: saline
[3] = dose: 200.0 mg/kg/injection, schedule: Q04DX003 (ip), vehicle: saline
[4] = dose: 100.0 mg/kg/injection, schedule: Q01DX001 (ip), vehicle: Klucel (hydroxypropylcellulose) (HPC)
[5] = dose: 200.0 mg/kg/injection, schedule: Q01DX001 (ip), vehicle: Klucel (hydroxypropylcellulose) (HPC)
[6] = dose: 100.0 mg/kg/injection, schedule: Q01DX001 (ip), vehicle: saline
[7] = dose: 200.0 mg/kg/injection, schedule: Q01DX001 (ip), vehicle: saline
[8] = dose: 100.0 mg/kg/injection, schedule: Q04DX003 (ip), vehicle: Klucel (hydroxypropylcellulose) (HPC)
[9] = dose: 200.0 mg/kg/injection, schedule: Q04DX003 (ip), vehicle: Klucel (hydroxypropylcellulose) (HPC)
[10] = dose: 400.0 mg/kg/injection, schedule: Q04DX003 (ip), vehicle: Klucel (hydroxypropylcellulose) (HPC)
[11] = dose: 100.0 mg/kg/injection, schedule: Q04DX003 (ip), vehicle: saline with Tween-80
[12] = dose: 200.0 mg/kg/injection, schedule: Q04DX003 (ip), vehicle: saline with Tween-80

SMILES: C[n+]1ccccc1/C=N/O
- T/C (dose: 25.0 mg/kg/injection, schedule: Q01DX009 (ip), vehicle: saline): 105 % of control
- T/C (dose: 33.0 mg/kg/injection, schedule: Q01DX009 (ip), vehicle: saline): 100 % of control
- T/C (dose: 50.0 mg/kg/injection, schedule: Q01DX009 (ip), vehicle: saline): 98 % of control
- T/C (dose: 75.0 mg/kg/injection, schedule: Q01DX009 (ip), vehicle: Klucel (hydroxypropylcellulose) (HPC)): 102 % of control
- T/C (dose: 75.0 mg/kg/injection, schedule: Q01DX009 (ip), vehicle: saline): 98 % of control
- T/C (dose: 75.0 mg/kg/injection, schedule: Q04DX003 (ip), vehicle: saline): 91 % of control
- T/C (dose: 100.0 mg/kg/injection, schedule: Q01DX009 (ip), vehicle: saline): 100 % of control and 103 % of control
- T/C [1]: 103 % of control
- T/C (dose: 150.0 mg/kg/injection, schedule: Q01DX009 (ip), vehicle: Klucel (hydroxypropylcellulose) (HPC)): 108 % of control
- T/C (dose: 150.0 mg/kg/injection, schedule: Q04DX003 (ip), vehicle: saline): 109 % of control
- T/C [2]: 97 % of control
- T/C [3]: 94 % of control
- T/C (dose: 300.0 mg/kg/injection, schedule: Q04DX003 (ip), vehicle: saline): 98 % of control

SMILES: CC(=O)Nc1ccn(C2OC(CO)C(O)C2O)c(=O)n1 (stereo unspecified)
- T/C [2]: 166 % of control
- T/C (dose: 400.0 mg/kg/injection, schedule: Q01DX009 (ip), vehicle: saline): 163 % of control

SMILES: O=c1c(N=Nc2ccc(Br)cc2)c(O)n(-c2ccc(I)cc2)c(=S)n1-c1ccccc1
- T/C (dose: 50.0 mg/kg/injection, schedule: Q01DX001 (ip), vehicle: Klucel (hydroxypropylcellulose) (HPC)): 97 % of control
- T/C [4]: 108 % of control
- T/C [5]: 121 % of control

SMILES: CC(=O)Nc1ccc(P(=O)(O)O)cc1[N+](=O)[O-]
- T/C [1]: 91 % of control
- T/C [3]: 102 % of control
- T/C (dose: 400.0 mg/kg/injection, schedule: Q04DX003 (ip), vehicle: saline): 115 % of control

SMILES: COc1c(O)c2c(c3cc(C(=O)N4CCc5c4c(O)c(OC)c4[nH]c(C(=O)N6CC7CC78C6=CC(=O)c6[nH]cc(C)c68)cc54)[nH]c13)CCN2C(N)=O (stereo unspecified)
- T/C (dose: 6.25 micrograms/kg/injection, schedule: Q01DX009 (ip), vehicle: DMSO): 124 % of control
- T/C (dose: 12.5 micrograms/kg/injection, schedule: Q01DX009 (ip), vehicle: DMSO): 111 % of control
- T/C (dose: 100.0 micrograms/kg/injection, schedule: Q01DX009 (ip), vehicle: DMSO): 96 % of control

SMILES: Nc1ccc(Nc2nc3ccccc3s2)c(O)c1
- T/C (dose: 75.0 mg/kg/injection, schedule: Q01DX001 (ip), vehicle: saline): 104 % of control
- T/C (dose: 150.0 mg/kg/injection, schedule: Q01DX001 (ip), vehicle: saline): 101 % of control
- T/C (dose: 300.0 mg/kg/injection, schedule: Q01DX001 (ip), vehicle: saline): 104 % of control

SMILES: Cc1ccccc1Nc1n[nH]c(=O)n1-c1ccccc1C
- T/C (dose: 100.0 mg/kg/injection, schedule: Q04DX003 (ip), vehicle: carboxymethylcellulose (CMC)): 98 % of control
- T/C (dose: 200.0 mg/kg/injection, schedule: Q04DX003 (ip), vehicle: carboxymethylcellulose (CMC)): 90 % of control
- T/C (dose: 400.0 mg/kg/injection, schedule: Q04DX003 (ip), vehicle: carboxymethylcellulose (CMC)): 106 % of control

SMILES: NC1C2C(CC(=O)O)OCC=C3CN4CCC1(C(=O)C(=O)O)C4CC32 (stereo unspecified)
- T/C (dose: 0.5 mg/kg/injection, schedule: Q01DX001 (ip), vehicle: saline): 101 % of control
- T/C (dose: 1.0 mg/kg/injection, schedule: Q01DX001 (ip), vehicle: saline): 101 % of control
- T/C (dose: 2.0 mg/kg/injection, schedule: Q01DX001 (ip), vehicle: saline): 102 % of control
- T/C (dose: 4.0 mg/kg/injection, schedule: Q01DX001 (ip), vehicle: saline): 106 % of control

SMILES: CCN(CC)CCN=Cc1ccccc1OC
- T/C [6]: 98 % of control
- T/C [7]: 101 % of control

SMILES: CCCCOC(=O)C(C(=O)OCCCC)(C(=O)OCCCC)C(C(=O)OCCCC)(C(=O)OCCCC)C(=O)OCCCC
- T/C (dose: 50.0 mg/kg/injection, schedule: Q01DX001 (ip), vehicle: saline): 101 % of control
- T/C [6]: 111 % of control
- T/C [7]: 104 % of control

SMILES: CN(C)CC(Oc1ccccc1)c1ccccc1 (stereo unspecified)
- T/C (dose: 100.0 mg/kg/injection, schedule: Q04DX002 (ip), vehicle: saline): 98 % of control

SMILES: Nc1cccc2c1nc(NCCO)c1ccccc12
- T/C [8]: 114 % of control
- T/C [9]: 103 % of control
- T/C [10]: 103 % of control

SMILES: Nc1ccc2c(c1)CCC2=O
- T/C (dose: 100.0 mg/kg/injection, schedule: Q04DX002 (ip), vehicle: saline with Tween-80): 98 % of control
- T/C (dose: 200.0 mg/kg/injection, schedule: Q04DX002 (ip), vehicle: saline with Tween-80): 102 % of control
- T/C (dose: 400.0 mg/kg/injection, schedule: Q04DX002 (ip), vehicle: saline with Tween-80): 90 % of control

SMILES: CC(=O)OC1C(NC(=O)OCc2ccccc2)CC(NC(=O)OCc2ccccc2)C(O)C1O (stereo unspecified)
- T/C [11]: 94 % of control
- T/C [12]: 88 % of control

SMILES: O=[N+]([O-])c1ccc(C2OC3CC4C5CCCC5C3C4O2)cc1 (stereo unspecified)
- T/C (dose: 50.0 mg/kg/injection, schedule: Q01DX001 (ip), vehicle: carboxymethylcellulose (CMC)): 87 % of control
- T/C (dose: 100.0 mg/kg/injection, schedule: Q01DX001 (ip), vehicle: carboxymethylcellulose (CMC)): 87 % of control
- T/C (dose: 200.0 mg/kg/injection, schedule: Q01DX001 (ip), vehicle: carboxymethylcellulose (CMC)): 91 % of control
- T/C (dose: 400.0 mg/kg/injection, schedule: Q01DX001 (ip), vehicle: carboxymethylcellulose (CMC)): 91 % of control

SMILES: CC(C(O)c1cccs1)C(O)(C(F)(F)F)C(F)(F)F (stereo unspecified)
- T/C [11]: 102 % of control
- T/C [12]: 91 % of control
- T/C (dose: 400.0 mg/kg/injection, schedule: Q04DX003 (ip), vehicle: saline with Tween-80): 88 % of control

SMILES: COc1cc(/C=C/c2ccnc3ccccc23)cc(OC)c1OC
- T/C (dose: 5.0 mg/kg/injection, schedule: Q01DX001 (ip), vehicle: saline): 96 % of control
- T/C (dose: 10.0 mg/kg/injection, schedule: Q01DX001 (ip), vehicle: saline): 102 % of control
- T/C (dose: 20.0 mg/kg/injection, schedule: Q01DX001 (ip), vehicle: saline): 102 % of control
- T/C (dose: 40.0 mg/kg/injection, schedule: Q01DX001 (ip), vehicle: saline): 91 % of control

SMILES: O=C(O)C1CC(Br)C(Br)CC1C(=O)Nc1ccc(Cl)c(Cl)c1 (stereo unspecified)
- T/C (dose: 100.0 mg/kg/injection, schedule: Q04DX002 (ip), vehicle: Klucel (hydroxypropylcellulose) (HPC)): 115 % of control
- T/C (dose: 200.0 mg/kg/injection, schedule: Q04DX002 (ip), vehicle: Klucel (hydroxypropylcellulose) (HPC)): 121 % of control

SMILES: c1ccc(-c2c(-c3ccc4c(c3)CCCC4)c(-c3ccccc3)c3c(c2-c2ccccc2)-c2cccc4cccc-3c24)cc1
- T/C (dose: 100.0 mg/kg/injection, schedule: Q01DX001 (ip), vehicle: saline with Tween-80): 87 % of control
- T/C (dose: 200.0 mg/kg/injection, schedule: Q01DX001 (ip), vehicle: saline with Tween-80): 87 % of control
- T/C (dose: 400.0 mg/kg/injection, schedule: Q01DX001 (ip), vehicle: saline with Tween-80): 100 % of control

SMILES: CCOC(=O)C(=Cc1ccccc1OC)C(=O)OCC
- T/C [4]: 100 % of control
- T/C [8]: 94 % of control
- T/C [5]: 111 % of control
- T/C [9]: 100 % of control
- T/C (dose: 400.0 mg/kg/injection, schedule: Q01DX001 (ip), vehicle: Klucel (hydroxypropylcellulose) (HPC)): 111 % of control
- T/C [10]: 92 % of control

SMILES: O=NN(CCCl)C(=O)Nc1ccc(S(=O)(=O)c2ccc(NC(=O)N(CCCl)N=O)cc2)cc1
- T/C (dose: 100.0 mg/kg/injection, schedule: Q01DX009 (ip), vehicle: carboxymethylcellulose (CMC)): 184 % of control
- T/C (dose: 118.0 mg/kg/injection, schedule: Q01DX009 (ip), vehicle: carboxymethylcellulose (CMC)): 152 % of control
- T/C (dose: 177.0 mg/kg/injection, schedule: Q01DX001 (ip), vehicle: carboxymethylcellulose (CMC)): 156 % of control
- T/C (dose: 200.0 mg/kg/injection, schedule: Q01DX009 (ip), vehicle: carboxymethylcellulose (CMC)): 192 % of control
- T/C (dose: 266.0 mg/kg/injection, schedule: Q01DX001 (ip), vehicle: carboxymethylcellulose (CMC)): 159 % of control
- T/C (dose: 266.0 mg/kg/injection, schedule: Q01DX009 (ip), vehicle: carboxymethylcellulose (CMC)): 170 % of control
- T/C (dose: 400.0 mg/kg/injection, schedule: Q01DX009 (ip), vehicle: carboxymethylcellulose (CMC)): 173 % of control and 186 % of control
- T/C (dose: 600.0 mg/kg/injection, schedule: Q01DX001 (ip), vehicle: carboxymethylcellulose (CMC)): 161 % of control and 172 % of control

SMILES: CCSc1nc(C(OC)OC)c(Cc2ccccc2)c(=O)[nH]1
- T/C [8]: 95 % of control
- T/C [9]: 89 % of control
- T/C [10]: 100 % of control
